For assay [1], the system named is Rattus norvegicus. In words: Anti-Pneumocystis carinii Pneumonia activity at intravenous dosage of 10.0 mg/kg/day in rat. The format is functional.
Assay [2] deals with Rattus norvegicus. Kind of assay: In vivo toxicity […] at intravenous dosage of 10.0 mg/kg/day in rat. The format is functional.

`N=C(N)c1ccc(OC/C=C/COc2ccc(C(=N)N)cc2)cc1` yielded a Control in assay [1] of 0.8%. This compound also displayed a Toxicity in assay [2] of 0.
Turning to `N=C(N)c1ccc(OCCCCCOc2ccc(C(=N)N)cc2)cc1` [PENTAMIDINE], the Control in assay [1] worked out at 4.5%. Moreover, in assay [2], the Toxicity is given as 2.
With `C(=C\COc1ccc(C2=NCCN2)cc1)/COc1ccc(C2=NCCN2)cc1`, the Control in assay [1] was 1.5%. In addition, in assay [2], the Toxicity stood at 0.
For the compound `N=C(N)c1ccc(OC/C=C\COc2ccc(C(=N)N)cc2)cc1`, in assay [1], the Control was found to be 1.3%. In assay [2], this compound had a Toxicity of 0.
In turn, `C(=C/COc1ccc(C2=NCCN2)cc1)/COc1ccc(C2=NCCN2)cc1` returned a Control in assay [1] of 1.4%. In assay [2], this compound came in with a Toxicity of 0.
